Molecular target: T1, human MIF (Homo sapiens, UniProt P14174)
T1 sequence (P14174 2-115 limits assumed): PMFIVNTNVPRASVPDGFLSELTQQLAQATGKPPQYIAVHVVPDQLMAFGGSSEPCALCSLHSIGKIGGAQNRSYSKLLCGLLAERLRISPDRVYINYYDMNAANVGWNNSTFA
Assay: Depletion of human MIF from cell culture supernatant (sandwich ELISA)
Format: cell-based
Details: for removal of MIF from supernatant: after 48 hours, FIG. 129
Protocol: The ability of bifunctional MIF-binding molecules to mediate the depletion of human MIF from cell culture was investigated. In these assays, human MIF was present at a concentration of 100 nM, and a sandwich ELISA assay was utilized to measure the concentration of human MIF remaining in the cell culture supernatant. The closely related bifunctional molecules MIF-GN3, MIF-PEG2-GN3, and MIF-PEG4-GN3 were used, as well as the structurally dissimilar molecule MIF-NVS-PEG3-GN3. […] Based on the ease of its synthesis and its efficacy in this experiment, MIF-GN3 was utilized for further studies. It was next investigated whether the MIF inhibitor 3w mediates MIF depletion from cell culture supernatant. […] When cells were treated with 3w, no depletion of exogenous MIF protein was observed after 24 hours (FIG. 128B).
Bifunctional molecules containing optimized ASGPR-binding motifs are also capable of mediating MIF depletion from cell culture supernatant (FIG. 129). The MIF-binding molecule MIF-AF1, which contains only a single ASGPR-binding sugar, was not effective at mediating depletion of MIF from supernatant at any concentration tested. It is hypothesized that this is due to the compound's low predicted affinity for ASGPR (μM range). […] At a concentration of either 200 nM or 1 μM, MIF-AF2 mediated nearly 100%/o depletion of MLF from the cell culture supernatant after 48 hours. […] In contrast to these molecules, which utilize optimized synthetic ASGPR ligands, the GalNAc-based molecule MIF-GN3 mediated only 67.0% and 56.0% removal of MIF from supernatant after 48 hours at concentrations of 1 μM and 200 nM, respectively. […] At a concentration of 40 nM (4.0 pmol of molecule), MIF-AF3 mediates the removal of 83.2% of MIF present in the cell culture supernatant, or 8.32 pmol of human MIF protein. Therefore, it was concluded that under the conditions of this experiment, MIF-AF3 mediates the depletion of 2.08 molar equivalents of MIF protein.

Q: With CC(=O)N[C@H]1[C@H](OCCOCCOCCNC(=O)CCOCC(COCCC(=O)NCCOCCOCCO[C@@H]2O[C@H](CO)[C@H](O)[C@H](O)[C@H]2NC(C)=O)(COCCC(=O)NCCOCCOCCO[C@@H]2O[C@H](CO)[C@H](O)[C@H](O)[C@H]2NC(C)=O)NC(=O)CNC(=O)CCCOc2ccc3nc(-c4cn(-c5ccc(O)c(F)c5)nn4)ccc3c2)O[C@H](CO)[C@H](O)[C@@H]1O [MIF-GN3] as the compound, how does the “removal of MIF from supernatant” value (200 nM) read?
A: 56.0%

Q: What about the “removal of MIF from supernatant” value (1 μM) of the same compound?
A: 67.0%

Q: And the “depletion of human MIF from cell culture supernatant” value (human MIF 100 nM, 24 hours, FIG. 128A)?
A: effective

Reference: patent US20250269043A1, “TARGETED BIFUNCTIONAL DEGRADERS” (YALE UNIVERSITY, priority 2019, published 2025)
